# Assays:
# [1] = test system: P. aeruginosa MUW 700 cAmpC-positive; assay: checkerboard microdilution, antibiotic plus tested agent; assay type: cell-based, Pseudomonas aeruginosa
# Method in brief: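 Read-out is the antibiotic MIC with agent present, plus FICI = combined/alone MIC ratios summed for both partners. Meropenem pairs served for carbapenemase strains and ceftazidime pairs for the AmpC strain. Agent or PBA was tested at 4–16 mg/L.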
# [2] = test system: K. pneumoniae ATCC BAA 1705 KPC-2-positive; assay: combination disc test CDT-KPC; assay type: cell-based; settings: Klebsiella pneumoniae, BAA1705; agent 0.3 mg per disc; read-out: Diameter of inhibition zone, MEM-10 disc with agent
# [3] = test system: B. subtilis ATCC 6633; assay: direct antimicrobial activity (disc-diffusion); assay type: cell-based; settings: Bacillus subtilis, ATCC6633; 0.4 mg per disc, 9 mm disc (linezolid 0.03 mg, 6 mm disc); - no zone; read-out: Diameter of inhibition zone
# Method in brief: (§1)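 Disc-diffusion, MIC, MBC (bacteria) and MFC (yeasts) were determined per EUCAST and CLSI recommendations. Diboronic acids were dissolved in DMSO and applied at 0.4 mg per disc for diffusion. References: nitrofurantoin (Gram-negative rods), linezolid (Gram-positive), fluconazole (fungi).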
# [4] = test system: C. guilliermondii IBA 155; assay: antifungal activity (disc-diffusion, MIC, MFC); assay type: cell-based, Candida guilliermondii; settings: Meyerozyma guilliermondii, IBA155; fluconazole by Etest
# Method in brief: as §1
# [5] = test system: P. aeruginosa MUW 700 cAmpC-positive; assay: combination disc test CDT-AmpC; assay type: cell-based; settings: Pseudomonas aeruginosa; agent 0.3 mg per disc; read-out: Diameter of inhibition zone, CAZ-30 disc with agent
# [6] = test system: C. tropicalis ATCC 750; assay: antifungal activity (disc-diffusion, MIC, MFC); assay type: cell-based; settings: Candida tropicalis, ATCC750; fluconazole by Etest
# Method in brief: as §1
# [7] = test system: C. tropicalis IBA 171; assay: antifungal activity (disc-diffusion, MIC, MFC); assay type: cell-based; settings: Candida tropicalis, IBA171; fluconazole by Etest
# Method in brief: as §1
# [8] = test system: S. cerevisiae ATCC 9763; assay: antifungal activity (disc-diffusion, MIC, MFC); assay type: cell-based; settings: Saccharomyces cerevisiae, ATCC9763; fluconazole by Etest
# Method in brief: as §1
# [9] = test system: C. albicans ATCC 90028; assay: antifungal activity (disc-diffusion, MIC, MFC); assay type: cell-based; settings: Candida albicans, ATCC90028; fluconazole by Etest
# Method in brief: as §1
# [10] = test system: P. aeruginosa MUW 700 AmpC(+); assay: MIC of tested agent alone, microdilution; assay type: cell-based; settings: Pseudomonas aeruginosa; read-out: MIC of agent alone
# Method in brief: (§2)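 Two-fold checkerboard dilutions pair β-lactams (1–64 mg/L) with tested agents (4–16 mg/L); agent MICs alone come from parallel microdilution.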
# [11] = test system: K. pneumoniae ATCC BAA-1705 KPC-2(+); assay: MIC of tested agent alone, microdilution; assay type: cell-based; settings: Klebsiella pneumoniae, ATCCBAA1705; read-out: MIC of agent alone
# Method in brief: as §2
# [12] = test system: E. coli 77 CMY-2(+); assay: MIC of tested agent alone, microdilution; assay type: cell-based; settings: Escherichia coli; read-out: MIC of agent alone
# Method in brief: as §2
# [13] = test system: E. coli 76 KPC-2(+); assay: MIC of tested agent alone, microdilution; assay type: cell-based; settings: Escherichia coli; read-out: MIC of agent alone
# Method in brief: as §2
# [14] = test system: K. pneumoniae 83 KPC-3(+), CTX-M-3(+); assay: MIC of tested agent alone, microdilution; assay type: cell-based; settings: Klebsiella pneumoniae; read-out: MIC of agent alone
# Method in brief: as §2
# [15] = test system: K. pneumoniae 81 KPC-3(+); assay: MIC of tested agent alone, microdilution; assay type: cell-based; settings: Klebsiella pneumoniae; read-out: MIC of agent alone
# Method in brief: as §2
# [16] = test system: S. aureus ATCC 43300 MRSA; assay: direct antimicrobial activity (disc-diffusion, MIC, MBC); assay type: cell-based; settings: Staphylococcus aureus
# Method in brief: as §1
# [17] = test system: S. aureus ATCC 6538P; assay: as above; assay type: cell-based; settings: Staphylococcus aureus, ATCC6538P
# Method in brief: as §1
# [18] = test system: E. faecium ATCC 6057; assay: as above; assay type: cell-based; settings: Enterococcus faecium, ATCC6057
# Method in brief: as §1
# [19] = test system: E. faecalis ATCC 29212; assay: as above; assay type: cell-based; settings: Enterococcus faecalis, ATCC29212
# Method in brief: as §1
# [20] = test system: S. epidermidis ATCC 12228; assay: as above; assay type: cell-based; settings: Staphylococcus epidermidis, ATCC12228; for zone of inhibition at 0.4 mg/disc: 0.4 mg per disc, 9 mm disc (linezolid 0.03 mg, 6 mm disc), - no zone, read-out: Diameter of inhibition zone
# Method in brief: as §1
# [21] = 0.4 mg per disc, 9 mm disc (linezolid 0.03 mg, 6 mm disc), - no zone, read-out: Diameter of inhibition zone
MIC [4] [µg/mL],MIC [6] [µg/mL],MIC [7] [µg/mL],MIC [8] [µg/mL],MIC [9] [µg/mL],MIC [10] [µg/mL],MIC [11] [µg/mL],MIC [12] [µg/mL],MIC [13] [µg/mL],MIC [14] [µg/mL],MIC [15] [µg/mL],MIC [16] [µg/mL],MIC [17] [µg/mL],SMILES,Average FICI with ceftazidime [1],Interpretation of the average FICI with ceftazidime [1],Interpretation of the lowest FICI with ceftazidime [1],The lowest FICI with ceftazidime [1],zone of inhibition at 300 µg/disc [2] [mm],zone of inhibition at 0.4 mg/disc [3] [mm],zone of inhibition at 300 µg/disc [5] [mm],further results
> 400,> 400,> 400,> 400,> 400,> 400,> 400,> 400,> 400,> 400,> 400,200,25,"OB(O)c1ccc(B(O)O)c(B(O)O)c1 [4b, benzene-1,2,4-triboronic]",0.30,"S (FICI ≤ 0.5, synergy)","S (FICI ≤ 0.5, synergy)",0.15,14,18,21,"zone of inhibition at 0.4 mg/disc [17, 21]: 20 mm; MIC [18]: 200 µg/mL; MIC [19]: 200 µg/mL; MIC [20]: 200 µg/mL; zone of inhibition at 0.4 mg/disc [20]: 20 mm"
> 400,> 400,> 400,> 400,400,> 400,> 400,> 400,> 400,> 400,> 400,400,100,"OB(O)c1ccsc1B(O)O [5a, thiophene-2,3-diboronic acid]",0.30,"S (FICI ≤ 0.5, synergy)","S (FICI ≤ 0.5, synergy)",0.15,15,15,22,MIC [18]: > 400 µg/mL; MIC [19]: 100 µg/mL; MIC [20]: 400 µg/mL; zone of inhibition at 0.4 mg/disc [20]: 13 mm

SMILES,MIC [4] [µg/mL],MIC [6] [µg/mL],MIC [7] [µg/mL],MIC [8] [µg/mL],MIC [9] [µg/mL],MIC [10] [µg/mL],MIC [11] [µg/mL],MIC [12] [µg/mL],MIC [13] [µg/mL],MIC [14] [µg/mL],MIC [15] [µg/mL],MIC [16] [µg/mL],MIC [17] [µg/mL],Average FICI with ceftazidime [1],Interpretation of the average FICI with ceftazidime [1],Interpretation of the lowest FICI with ceftazidime [1],The lowest FICI with ceftazidime [1],zone of inhibition at 300 µg/disc [2] [mm],zone of inhibition at 0.4 mg/disc [3] [mm],zone of inhibition at 300 µg/disc [5] [mm],further results
"OB(O)c1ccccc1B(O)O [3a, phenylene-1,2-diboronic acid]",> 400,> 400,> 400,25,> 400,400,400,400,400,400,400,400,200,0.61,"I (0.5 < FICI ≤ 4, indifference)","S (FICI ≤ 0.5, synergy)",0.29,17,24,22,"MIC [18]: 50 µg/mL; zone of inhibition at 0.4 mg/disc [18, 21]: 16 mm; MIC [19]: 400 µg/mL; MIC [20]: 200 µg/mL; zone of inhibition at 0.4 mg/disc [20]: 20 mm"

# From PMC10648349, “Aromatic Diboronic Acids as Effective KPC/AmpC Inhibitors” (Molecules, 2023)
